Data on one compound can be found in patent US7465857B1, “Glyphosate tolerant perennial ryegrass” (priority 2004, dated 2008).

One data set concerns EK-2703 (BAR Lp 2703). The data set is classed as in vivo, Lolium perenne. Particulars: Average June/July 1998, 9=completely green. The method, then: The mean turf color rating for the BAR LP 2703 variety in this perennial ryegrass turf trial that was seeded in the spring of 1998 (at 16 kg/ha) in Wolfheze was 7.6 in June/July 1998 (9=completely green).
The next data set concerns BAR Lp 2703. In kind it is in vivo, Lolium perenne. Particulars: 40 days after first application, scale 1-9, 9=perfect turf. The source says: (§1) This example provides methods and results of field trials in which the glyphosate tolerance characteristics of BAR Lp 2703 were examined and compared with Peak perennial ryegrass in Florence, S.C.
(§2) Peak and LP2703 perennial ryegrasses were overseeded at 350 lb/acre on dormant Bermuda grass base on Oct. 7, 2003. Turf quality was rated 7 times between Nov. 10, 2003 and Mar. 2, 2004. Turf quality fluctuated between 6.0 and 7.5 with changes in weather and fertilization (rated on a scale of 1-9 with 1=bare soil and 9=perfect turf).
(§3) Experimental treatments were 0, 3, 5, 6, 8, 10, and 16 ounces Roundup PROS per acre. One application of each treatment was applied on Mar. 12, 2004 to plots 3 feet wide by 6 feet long. The 3 and 6 oz/acre treatments were applied a second time on Mar. 28, 2004. There were two replications of each treatment applied to each cultivar. Applications were made in 2 gallons of water per 1000 square feet with a CO2-charged backpack sprayer.
(§4) Turf damage was rated on a scale of 0-9 with 0=no damage and 9=complete damage 7, 14, and 21 days after the first spray. Damage was not evident prior to 7 days.
(§5) The ratings shown in Table 10 were obtained 40 days after the first application of glyphosate (24 days after 2nd application).

In the next data set the test system is Peak. The experiment in a line: Field trial Florence, S.C.: glyphosate tolerance, turf damage and turf quality. The data set is classed as in vivo, perennial ryegrass. Particulars: 40 days after first application, scale 1-9, 9=perfect turf.
From the text: as §1, §2, §3, §4, §5

Read-outs that look alike come from different tables or passages of the source.

Take `O=C(O)CNCP(=O)(O)O` [Glyphosate, N-(phosphonomethyl) glycine]: the “Turf Color After Spraying” value in the data set with EK-2703 (BAR Lp 2703) is reported as 7.6. The Turf quality ratings in the data set with BAR Lp 2703 (3 oz/acre twice) is reported as 6.4; in the data set on BAR Lp 2703 (5 oz/acre) it was 7.3; in the data set with BAR Lp 2703 (6 oz/acre twice), 5.8; in the data set with BAR Lp 2703 (8 oz/acre) it was 7.8; in the data set with BAR Lp 2703 (10 oz/acre), 8.0; in the data set with BAR Lp 2703 (16 oz/acre), 6.5. For the same compound, the Turf quality ratings is 5.4 in the data set with Peak (3 oz/acre twice); 6.8 in the data set with Peak (5 oz/acre); 2.5 with Peak (6 oz/acre twice); 7.7 in the data set with Peak (8 oz/acre); 7.0 in the data set on Peak (10 oz/acre); 5.9 with Peak (16 oz/acre).
